Blank lines part the entries; values can stand above or below the compound they belong to.
What was measured:
[1] = target: T1, Muscarinic acetylcholine receptor M2 (Homo sapiens) (UniProt P08172); experiment: Selectivity interaction (GPCR panel (PDSP screen)) EUB0001079a CHRM2; conditions: at 10 µM
T1 sequence (whole entry): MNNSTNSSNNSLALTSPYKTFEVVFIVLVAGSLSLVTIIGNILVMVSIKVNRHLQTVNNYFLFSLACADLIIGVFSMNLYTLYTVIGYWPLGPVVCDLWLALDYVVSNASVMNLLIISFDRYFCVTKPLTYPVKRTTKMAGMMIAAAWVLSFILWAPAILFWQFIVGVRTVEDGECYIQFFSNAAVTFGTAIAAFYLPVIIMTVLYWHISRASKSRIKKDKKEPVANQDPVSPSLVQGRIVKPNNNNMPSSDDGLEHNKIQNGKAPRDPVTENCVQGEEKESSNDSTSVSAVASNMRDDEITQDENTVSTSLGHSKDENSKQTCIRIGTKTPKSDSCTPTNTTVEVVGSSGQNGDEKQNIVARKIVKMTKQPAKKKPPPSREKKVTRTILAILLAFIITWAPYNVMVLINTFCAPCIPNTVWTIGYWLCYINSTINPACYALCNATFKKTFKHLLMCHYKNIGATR

[2] = target: Ephrin type-A receptor 7 (Homo sapiens) (UniProt Q15375); experiment: Selectivity interaction (KinomeScan (DiscoverX)) EUB0000607a EPHA7; conditions: at 10 µM
[3] = target: T2, NUAK family SNF1-like kinase 1 (Homo sapiens) (UniProt O60285); experiment: Selectivity interaction (KinomeScan (DiscoverX)) EUB0000607a NUAK1; conditions: at 10 µM
T2 sequence (whole entry): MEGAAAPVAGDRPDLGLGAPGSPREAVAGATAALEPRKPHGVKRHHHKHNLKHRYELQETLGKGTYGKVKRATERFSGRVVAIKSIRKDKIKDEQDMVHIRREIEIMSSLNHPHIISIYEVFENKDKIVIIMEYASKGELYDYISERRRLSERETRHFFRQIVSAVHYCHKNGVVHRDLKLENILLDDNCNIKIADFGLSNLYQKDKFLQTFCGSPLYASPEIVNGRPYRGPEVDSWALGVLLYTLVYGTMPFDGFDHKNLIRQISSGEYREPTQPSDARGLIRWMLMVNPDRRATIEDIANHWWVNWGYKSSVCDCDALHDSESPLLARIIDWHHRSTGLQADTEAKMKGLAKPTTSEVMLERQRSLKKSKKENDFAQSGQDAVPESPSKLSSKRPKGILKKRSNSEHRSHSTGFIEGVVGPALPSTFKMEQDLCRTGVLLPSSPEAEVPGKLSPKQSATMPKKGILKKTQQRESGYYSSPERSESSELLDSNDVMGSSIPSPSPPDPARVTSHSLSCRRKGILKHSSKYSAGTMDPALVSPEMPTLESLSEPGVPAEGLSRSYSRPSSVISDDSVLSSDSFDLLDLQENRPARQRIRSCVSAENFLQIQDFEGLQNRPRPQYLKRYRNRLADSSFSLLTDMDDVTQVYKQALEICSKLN

[4] = target: Death-associated protein kinase 2 (Homo sapiens) (UniProt Q9UIK4); experiment: Selectivity interaction (KinomeScan (DiscoverX)) EUB0000045b DAPK2
[5] = target: Mitogen-activated protein kinase 1 (Homo sapiens, UniProt P28482); experiment: Selectivity interaction (KinomeScan (DiscoverX)) EUB0000595a MAPK1; conditions: at 10 µM
[6] = target: Ephrin type-A receptor 2 (Homo sapiens) (UniProt P29317); experiment: Selectivity interaction (KinomeScan (DiscoverX)) EUB0000595a EPHA2; conditions: at 10 µM
[7] = target: Fibroblast growth factor receptor 1 (Homo sapiens, UniProt P11362); experiment: Selectivity interaction (Upstate Kinase Profiler service (Millipore)) EUB0000056c FGFR1; conditions: at 1 µM
[8] = target: T3, Bone morphogenetic protein receptor type-2 (Homo sapiens) (UniProt Q13873); conditions: at 10 µM
T3 sequence (whole entry): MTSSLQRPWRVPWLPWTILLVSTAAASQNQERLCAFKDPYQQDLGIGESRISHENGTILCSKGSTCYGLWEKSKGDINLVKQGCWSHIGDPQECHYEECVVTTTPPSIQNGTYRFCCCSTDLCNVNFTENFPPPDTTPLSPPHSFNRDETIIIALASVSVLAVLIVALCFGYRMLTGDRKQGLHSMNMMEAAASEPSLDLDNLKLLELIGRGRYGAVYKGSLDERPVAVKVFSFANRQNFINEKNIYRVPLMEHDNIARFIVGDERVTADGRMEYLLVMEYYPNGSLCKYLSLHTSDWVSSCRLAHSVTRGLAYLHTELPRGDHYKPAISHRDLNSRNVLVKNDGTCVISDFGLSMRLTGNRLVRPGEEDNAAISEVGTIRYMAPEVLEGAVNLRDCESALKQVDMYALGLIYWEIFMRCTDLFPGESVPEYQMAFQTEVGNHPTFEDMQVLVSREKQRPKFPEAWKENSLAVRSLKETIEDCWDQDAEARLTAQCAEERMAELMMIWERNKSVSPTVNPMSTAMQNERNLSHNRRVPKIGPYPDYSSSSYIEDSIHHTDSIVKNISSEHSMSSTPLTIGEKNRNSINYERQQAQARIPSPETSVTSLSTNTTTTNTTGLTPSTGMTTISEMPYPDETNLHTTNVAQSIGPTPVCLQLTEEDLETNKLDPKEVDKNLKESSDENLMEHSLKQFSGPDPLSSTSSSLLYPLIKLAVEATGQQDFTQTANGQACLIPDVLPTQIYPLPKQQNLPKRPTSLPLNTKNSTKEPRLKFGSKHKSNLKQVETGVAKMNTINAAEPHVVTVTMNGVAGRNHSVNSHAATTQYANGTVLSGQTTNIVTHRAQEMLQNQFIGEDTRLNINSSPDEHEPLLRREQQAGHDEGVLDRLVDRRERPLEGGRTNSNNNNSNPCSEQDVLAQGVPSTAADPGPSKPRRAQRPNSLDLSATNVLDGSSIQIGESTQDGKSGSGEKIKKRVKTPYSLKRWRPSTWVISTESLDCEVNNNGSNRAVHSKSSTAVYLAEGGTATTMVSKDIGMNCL

[9] = target: Ribosomal protein S6 kinase alpha-2 (Homo sapiens) (UniProt Q15349); experiment: Selectivity interaction (ActivX KiNativ screen (kinase selectivity in THP-1 cell lysates)) EUB0000639a RPS6KA2; assay type: subcellular; conditions: lysate, at 0.2 µM
[10] = target: Dual specificity tyrosine-phosphorylation-regulated kinase 1B (Homo sapiens, UniProt Q9Y463); experiment: Selectivity interaction (Enzymatic assay) EUB0001550a DYRK1B
[11] = target: Fibroblast growth factor receptor 2 (Homo sapiens) (UniProt P21802); experiment: Selectivity interaction (Kinase panel (Z-LYTE Assay)) EUB0001632a FGFR2; conditions: at 10 µM
[12] = system: Hepatocyte growth factor receptor (Homo sapiens), P08581 [M1250T]; experiment: (§1) Selectivity interaction (Kinase panel (Z-LYTE Assay)) EUB0001632a MET; conditions: at 10 µM
[13] = target: Hepatocyte growth factor receptor (Homo sapiens, UniProt P08581); experiment: as §1; conditions: at 10 µM
Chain of Hepatocyte growth factor receptor (P08581 whole entry): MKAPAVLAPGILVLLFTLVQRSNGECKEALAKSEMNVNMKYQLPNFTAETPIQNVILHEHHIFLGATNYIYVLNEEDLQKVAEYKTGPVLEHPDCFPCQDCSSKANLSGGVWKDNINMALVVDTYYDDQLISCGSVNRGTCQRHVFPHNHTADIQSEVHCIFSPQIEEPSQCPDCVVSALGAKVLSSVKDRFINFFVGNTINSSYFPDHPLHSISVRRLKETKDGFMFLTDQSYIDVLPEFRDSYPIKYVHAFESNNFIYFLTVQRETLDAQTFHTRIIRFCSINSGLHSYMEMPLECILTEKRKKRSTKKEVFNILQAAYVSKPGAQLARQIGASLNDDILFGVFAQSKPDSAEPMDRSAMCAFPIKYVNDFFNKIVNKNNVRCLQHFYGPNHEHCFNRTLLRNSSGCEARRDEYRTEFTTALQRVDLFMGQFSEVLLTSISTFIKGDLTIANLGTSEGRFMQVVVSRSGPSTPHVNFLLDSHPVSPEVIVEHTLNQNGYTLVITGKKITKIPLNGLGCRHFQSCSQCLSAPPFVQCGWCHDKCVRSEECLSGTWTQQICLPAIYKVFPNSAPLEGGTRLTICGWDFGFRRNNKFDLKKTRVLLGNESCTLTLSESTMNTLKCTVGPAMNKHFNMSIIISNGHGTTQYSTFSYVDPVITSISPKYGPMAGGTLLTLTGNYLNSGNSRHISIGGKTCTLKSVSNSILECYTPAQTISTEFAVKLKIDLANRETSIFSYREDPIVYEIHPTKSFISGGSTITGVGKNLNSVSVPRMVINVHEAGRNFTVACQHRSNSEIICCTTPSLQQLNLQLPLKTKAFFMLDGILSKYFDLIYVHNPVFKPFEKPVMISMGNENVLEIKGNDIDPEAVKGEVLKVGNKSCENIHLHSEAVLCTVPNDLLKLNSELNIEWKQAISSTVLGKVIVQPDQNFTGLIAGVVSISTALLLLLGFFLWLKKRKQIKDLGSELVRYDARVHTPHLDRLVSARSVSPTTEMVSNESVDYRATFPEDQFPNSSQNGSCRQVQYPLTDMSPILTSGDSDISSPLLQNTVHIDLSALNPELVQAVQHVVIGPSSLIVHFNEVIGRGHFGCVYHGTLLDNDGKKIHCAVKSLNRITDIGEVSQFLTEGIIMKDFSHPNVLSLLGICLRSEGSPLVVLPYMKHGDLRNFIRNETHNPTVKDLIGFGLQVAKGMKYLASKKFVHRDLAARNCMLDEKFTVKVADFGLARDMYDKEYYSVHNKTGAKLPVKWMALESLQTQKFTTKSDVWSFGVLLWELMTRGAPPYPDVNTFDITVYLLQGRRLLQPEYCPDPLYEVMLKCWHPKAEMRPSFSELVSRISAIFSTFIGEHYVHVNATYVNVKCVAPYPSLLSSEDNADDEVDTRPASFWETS

Chain of Death-associated protein kinase 2 (Homo sapiens) (Q9UIK4 whole entry, looked up): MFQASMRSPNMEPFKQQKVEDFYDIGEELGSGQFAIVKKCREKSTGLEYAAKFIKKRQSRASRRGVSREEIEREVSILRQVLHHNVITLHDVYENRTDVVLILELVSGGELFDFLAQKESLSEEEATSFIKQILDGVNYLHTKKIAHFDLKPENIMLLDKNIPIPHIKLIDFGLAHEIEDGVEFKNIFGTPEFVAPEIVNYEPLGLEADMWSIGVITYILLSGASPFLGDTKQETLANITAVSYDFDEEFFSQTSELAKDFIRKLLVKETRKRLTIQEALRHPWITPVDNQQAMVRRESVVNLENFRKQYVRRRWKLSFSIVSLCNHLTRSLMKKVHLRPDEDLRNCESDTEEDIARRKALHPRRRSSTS
Chain of Ribosomal protein S6 kinase alpha-2 (Homo sapiens) (Q15349 whole entry): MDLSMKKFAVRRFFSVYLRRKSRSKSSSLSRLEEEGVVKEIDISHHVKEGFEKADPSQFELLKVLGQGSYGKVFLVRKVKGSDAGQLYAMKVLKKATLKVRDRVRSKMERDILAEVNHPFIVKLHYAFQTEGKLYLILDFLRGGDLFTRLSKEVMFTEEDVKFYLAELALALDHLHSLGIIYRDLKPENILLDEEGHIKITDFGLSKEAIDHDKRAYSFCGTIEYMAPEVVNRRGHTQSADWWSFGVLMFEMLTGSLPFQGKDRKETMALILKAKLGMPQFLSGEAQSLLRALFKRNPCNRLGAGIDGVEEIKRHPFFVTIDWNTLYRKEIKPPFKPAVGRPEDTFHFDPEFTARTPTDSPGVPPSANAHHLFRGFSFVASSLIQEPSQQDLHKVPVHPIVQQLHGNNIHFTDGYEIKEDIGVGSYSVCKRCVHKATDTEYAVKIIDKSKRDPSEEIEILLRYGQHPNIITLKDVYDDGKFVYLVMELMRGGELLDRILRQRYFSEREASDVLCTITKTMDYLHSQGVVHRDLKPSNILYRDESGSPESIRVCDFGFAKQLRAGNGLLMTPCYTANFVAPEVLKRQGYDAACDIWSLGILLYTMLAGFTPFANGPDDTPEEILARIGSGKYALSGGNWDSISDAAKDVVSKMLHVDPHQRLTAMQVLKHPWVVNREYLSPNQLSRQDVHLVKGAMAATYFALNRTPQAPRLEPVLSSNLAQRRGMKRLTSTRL
Chain of Ephrin type-A receptor 7 (Homo sapiens) (Q15375 28-998 limits assumed): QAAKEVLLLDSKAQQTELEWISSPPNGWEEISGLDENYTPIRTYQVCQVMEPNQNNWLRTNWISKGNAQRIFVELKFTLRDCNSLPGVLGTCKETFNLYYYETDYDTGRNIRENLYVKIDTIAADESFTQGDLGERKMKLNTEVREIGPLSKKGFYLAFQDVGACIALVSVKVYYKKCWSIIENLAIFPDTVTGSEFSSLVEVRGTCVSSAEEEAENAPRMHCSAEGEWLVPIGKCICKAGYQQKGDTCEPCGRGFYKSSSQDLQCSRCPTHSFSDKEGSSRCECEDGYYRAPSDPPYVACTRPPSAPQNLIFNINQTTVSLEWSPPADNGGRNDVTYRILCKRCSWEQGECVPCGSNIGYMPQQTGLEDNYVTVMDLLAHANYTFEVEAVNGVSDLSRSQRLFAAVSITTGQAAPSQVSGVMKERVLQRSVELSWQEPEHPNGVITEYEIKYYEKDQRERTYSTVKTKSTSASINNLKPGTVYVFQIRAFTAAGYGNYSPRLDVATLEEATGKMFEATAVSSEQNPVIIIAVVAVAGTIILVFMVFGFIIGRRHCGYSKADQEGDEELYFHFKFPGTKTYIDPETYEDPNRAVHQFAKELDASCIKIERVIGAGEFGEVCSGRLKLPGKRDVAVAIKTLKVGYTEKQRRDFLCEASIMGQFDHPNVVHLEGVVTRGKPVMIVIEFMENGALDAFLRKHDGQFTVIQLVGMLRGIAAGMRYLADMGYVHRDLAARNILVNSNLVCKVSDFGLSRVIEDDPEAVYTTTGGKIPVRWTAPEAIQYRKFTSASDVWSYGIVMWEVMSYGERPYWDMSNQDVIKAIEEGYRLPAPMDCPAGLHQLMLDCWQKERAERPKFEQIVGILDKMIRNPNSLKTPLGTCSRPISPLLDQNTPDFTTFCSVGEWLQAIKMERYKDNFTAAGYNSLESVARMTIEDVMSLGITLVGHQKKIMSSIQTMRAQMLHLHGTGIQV
Chain of Fibroblast growth factor receptor 2 (Homo sapiens) (P21802 22-821 limits assumed): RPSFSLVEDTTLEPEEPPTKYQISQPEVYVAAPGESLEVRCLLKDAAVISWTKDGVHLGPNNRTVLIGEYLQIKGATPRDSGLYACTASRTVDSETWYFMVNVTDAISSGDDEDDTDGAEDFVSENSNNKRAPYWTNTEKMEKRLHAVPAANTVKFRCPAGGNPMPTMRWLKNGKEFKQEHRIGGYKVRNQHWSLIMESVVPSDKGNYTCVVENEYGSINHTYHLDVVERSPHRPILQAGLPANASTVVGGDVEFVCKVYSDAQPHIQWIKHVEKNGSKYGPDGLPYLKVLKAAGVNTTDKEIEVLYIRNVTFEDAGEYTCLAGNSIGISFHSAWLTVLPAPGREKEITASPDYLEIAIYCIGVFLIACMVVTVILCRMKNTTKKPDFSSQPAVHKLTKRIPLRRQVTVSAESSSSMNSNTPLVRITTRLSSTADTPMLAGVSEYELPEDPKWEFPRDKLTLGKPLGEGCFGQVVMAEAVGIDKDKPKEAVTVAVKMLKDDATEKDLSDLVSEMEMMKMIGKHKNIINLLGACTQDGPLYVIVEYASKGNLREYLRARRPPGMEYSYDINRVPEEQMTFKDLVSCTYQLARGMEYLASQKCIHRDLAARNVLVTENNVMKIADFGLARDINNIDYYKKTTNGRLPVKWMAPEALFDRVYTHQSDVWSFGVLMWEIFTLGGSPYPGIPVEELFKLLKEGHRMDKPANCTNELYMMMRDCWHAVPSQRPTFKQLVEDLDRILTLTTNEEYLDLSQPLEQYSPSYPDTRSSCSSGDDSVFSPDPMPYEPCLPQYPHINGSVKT
Chain of Mitogen-activated protein kinase 1 (P28482 whole entry): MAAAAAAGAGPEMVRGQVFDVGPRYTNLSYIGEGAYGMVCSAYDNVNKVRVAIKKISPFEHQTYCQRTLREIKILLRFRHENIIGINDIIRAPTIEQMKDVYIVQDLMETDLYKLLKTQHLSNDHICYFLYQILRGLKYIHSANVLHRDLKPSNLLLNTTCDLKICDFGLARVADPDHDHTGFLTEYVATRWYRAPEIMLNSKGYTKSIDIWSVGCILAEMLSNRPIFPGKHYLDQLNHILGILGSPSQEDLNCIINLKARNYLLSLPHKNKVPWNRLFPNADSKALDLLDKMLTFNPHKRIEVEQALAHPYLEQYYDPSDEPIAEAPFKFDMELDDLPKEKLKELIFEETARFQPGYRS

SMILES: Nc1cnc(N2CCc3cc(S(=O)(=O)Nc4c(F)cc(Cl)cc4F)cc(N4CCCC4=O)c32)nc1 [TP-020n]
% of inhibition [1]: 3.7%

SMILES: CNC(=O)Nc1ccc(-c2nc(N3CC4CCC(C3)O4)c3cnn(C4CCC5(CC4)OCCO5)c3n2)cc1
% of control [2]: 87% | % of control [3]: 82%

SMILES: C=CC(=O)Nc1cc(-n2c(=O)ccc3cnc4ccc(-c5ccc(NS(C)(=O)=O)cc5)cc4c32)ccc1C
% of control ([4]; at 1 µM): 100% | % of control ([4]; at 10 µM): 94%

SMILES: COCC(=O)NC/C=C/c1ccc2ncnc(Nc3ccc(Oc4ccc(C)nc4)c(C)c3)c2c1 [CP-724714]
% of control [5]: 100% | % of control [6]: 100%

% of inhibition [7]: 3%
SMILES: Cc1ccc(-c2ccc3c(ccc4sc5c(c43)NC[C@@H](C)NC5=O)n2)cn1

SMILES: Cc1cc([C@@H](C)Nc2ccccc2C(=O)O)c2nc(N3CCOCC3)cc(=O)n2c1 [AZD-6482]
% of control [8]: 69%

% of inhibition [9]: 2.6%
SMILES: CC[C@@H]1[C@H](F)C(=O)N[C@@H]1COc1nccc2cc(C(N)=O)c(OC)cc12 [ZIMLOVISERTIB]

IC50 [10]: 380 nM
SMILES: CN(C)CC#Cc1ccc2[nH]c3c(c2c1)-c1nc(N)ncc1CCC3

% of control [11]: 17.8% | % of control [12]: 1.3% | % of control [13]: -11.4%
SMILES: Cn1cc(-n2cnc3c(NCc4nc5cc(Cl)c(Cl)cc5[nH]4)nc(N4CCOCC4)nc32)cn1

Source: ChEMBL document CHEMBL5465560, “Selectivity Literature for EUbOPEN Chemogenomic Library” (2024)
